In series [1] the test system is souris. In words: Toxicity: mortality in mice after oral or intraperitoneal administration. The format is in vivo.
Series [2] has as its system candida albicans. The series can be described thus: In vitro antifungal activity by standard dilution techniques. The class given is cell-based. To be noted: concentration de 20 microgramme par ml. The source says:
In vitro une activité antifongique a été mise en évidence vis à vis de candida albicans pour le COR3296. L'activité observée par des techniques de dilution standard est significative à la concentration de 20 microgramme par ml.

Series [3] concerns rat génétiquement hypertendu. In words: Arterial blood pressure in genetically hypertensive rats after oral administration. The class given is in vivo. The conditions noted are these: 60mg/kg voie orale. As to the method:
Administré chez le rat génétiquement hypertendu à la dose de 60mg/kg par voie orale le COR3267 entraine une diminution de la pression artérielle de 8, 12 et 14 %, ces variations étant respectivement mesurées 2, 4 et 6 heures après l'administration.

The mark [4] stands for this setting: voie intrapéritonéale, 200mg/kg.

Data on ten compounds can be found in patent EP0294307B1, “3-Arylcarbamoyl-5-aminomethyl-oxazolidines, and their salts with pharmaceutically acceptable acids” (CORTIAL S.A., priority 1987, dated 1988).

In the case of `N=C1OC(CN2CCN(c3ccccc3)CC2)CN1C(=O)Nc1ccccc1` (stereo not drawn) [COR3262, Phényl carbamoyl-3, imino-2, (phényl-4 pipérazinylméthyl)-5 oxazolidine], the mortalité entry was “aucune mortalité” in series [1] (setting [4]) and “aucune mortalité” in series [1] (voie orale, 300mg/kg).
Consider “Chlorhydrate de la phényl carbamoyl-3 ((fluoro-4 phényl)-4 pipérazinylméthyl)-5 oxazolidinone-2 [COR3265]”, for which the mortalité result in series [1] (setting [4]) is given as “aucune mortalité”; in series [1] (voie orale, 300mg/kg), “aucune mortalité”.
Regarding `N=C1OC(CN2CCN(c3ccccn3)CC2)CN1C(=O)Nc1ccccc1` (stereo not drawn) [COR3263, Phényl carbamoyl-3 imino-2 ((pyridyl-2)-4 pipérazinylméthyl)-5 oxazolidine], the mortalité result in series [1] (setting [4]) is “aucune mortalité”; in series [1] (voie orale, 300mg/kg), “aucune mortalité”.
On to `N=C1OC(CN2CCN(c3cccc(C(F)(F)F)c3)CC2)CN1C(=O)Nc1ccccc1` (stereo not drawn) [COR3266, Phényl carbamoyl-3 imino-2 ((trifluorométhyl-3 phényl)-4 pipérazinylméthyl)-5 oxazolidine], for which the mortalité entry is “aucune mortalité” in series [1] (setting [4]) and “aucune mortalité” in series [1] (voie orale, 300mg/kg).
For “Chlorhydrate de la phényl carbamoyl-3 ((chloro-3 phényl)-4 pipérazinylméthyl)-5 oxazolidinone-2 [COR3277]”, the mortalité entry was “aucune mortalité” in series [1] (setting [4]) and “aucune mortalité” in series [1] (voie orale, 300mg/kg).
In the case of `N=C1OC(CN2CCN(c3ccc(F)cc3)CC2)CN1C(=O)Nc1ccccc1` (stereo not drawn) [COR3278, Phényl carbamoyl-3 imino-2 ((fluoro-4 phényl)-4 pipérazinylméthyl)-5 oxazolidine], the mortalité result in series [1] (setting [4]) is recorded as “aucune mortalité”; in series [1] (voie orale, 300mg/kg), “aucune mortalité”.
On to `N=C1OC(CN2CCN(c3ccccc3)CC2)CN1C(=S)Nc1ccccc1` (stereo not drawn) [COR3296, Phényl thiocarbamoyl-3 imino-2 (phényl-4 pipérazinylméthyl)-5 oxazolidine], for which the mortalité result is on record as “aucune mortalité” in series [1] (setting [4]) and “aucune mortalité” in series [1] (voie orale, 300mg/kg). In series [2], the activité antifongique result is “significative”.
As for `O=C(Nc1ccccc1)N1CC(CN2CCN(c3cccc(C(F)(F)F)c3)CC2)OC1=O` (stereo not drawn) [COR3276, Phényl carbamoyl-3 ((trifluorométhyl-3 phényl)-4 pipérazinylméthyl)-5 oxazolidinone-2], the mortalité entry in series [1] (setting [4]) is reported as “aucune mortalité”; in series [1] (voie orale, 300mg/kg) it was “aucune mortalité”.
With `N=C1OC(CN2CCN(c3cccc(Cl)c3)CC2)CN1C(=O)Nc1ccccc1` (stereo not drawn) [COR3279, Phényl carbamoyl-3 imino-2 ((chloto-3 phényl)-4 pipérazinylméthyl)-5 oxazolidine], the mortalité entry in series [1] (setting [4]) is recorded as “aucune mortalité”; in series [1] (voie orale, 300mg/kg) it was “aucune mortalité”.
In the case of “Chlorhydrate de la phényl carbamoyl-3, (phényl-4 pipérazinylméthyl)-5 oxazolidinone-2 [COR3267]”, the mortalité entry in series [1] (setting [4]) is reported as “aucune mortalité”; in series [1] (voie orale, 300mg/kg), “aucune mortalité”. The entries for the “diminution de la pression artérielle” value in series [3] (2 heures après l'administration), in series [3] (4 heures après l'administration) and in series [3] (6 heures après l'administration) were 8%, 12% and 14%, respectively.
